How the values were obtained:
[1] = test system: Ang II-induced hypertensive mice; assay: Systolic blood pressure (tail-cuff) in Ang II-induced hypertensive mice; type: in vivo; settings: Ang II-infused mice, 3 mg·kg^-1·day^-1 i.p. day 8 to 14, vs Ang II group
Source text: All animal experiments were approved by the Animal Experiment Committee of the Chonnam National University Medical School (CNU IACUC-H-2017-70) and carried out in accordance with the Guide for the Care and Use of Laboratory Animals (US National Institutes of Health Publication, 8th edition, 2011). CD-1 male mice (8-week-old) were purchased from OrientBio Company (Gyeonggi, South Korea). Alzet mini-osmotic pumps (model 1002) were purchased from Durect Corporation (Cupertino, CA, USA).

ANP mRNA = assay: qRT-PCR of heart tissue, Ang II mice; type: in vivo; settings: Ang II-infused mice, 3 mg·kg^-1·day^-1 i.p. day 8 to 14, vs Ang II group
BNP mRNA = assay: qRT-PCR of heart tissue, Ang II mice; type: in vivo; settings: Ang II-infused mice, 3 mg·kg^-1·day^-1 i.p. day 8 to 14, vs Ang II group
skeletal α-actin mRNA = assay: qRT-PCR of heart tissue, Ang II mice; type: in vivo; settings: Ang II-infused mice, 3 mg·kg^-1·day^-1 i.p. day 8 to 14, vs Ang II group
[2] = test system: Ang II-induced hypertensive mice; assay: Aortic wall thickness (H&E staining) in Ang II mice; type: in vivo; settings: Ang II-infused mice, 3 mg·kg^-1·day^-1 i.p. day 8 to 14, H&E, vs Ang II group
cyclin D1 mRNA = assay: qRT-PCR of aortic tissue, Ang II mice; type: in vivo; settings: Ang II-infused mice, 3 mg·kg^-1·day^-1 i.p. day 8 to 14, vs Ang II group
cyclin E1 mRNA = assay: qRT-PCR of aortic tissue, Ang II mice; type: in vivo; settings: Ang II-infused mice, 3 mg·kg^-1·day^-1 i.p. day 8 to 14, vs Ang II group
E2F3 mRNA = assay: qRT-PCR of aortic tissue, Ang II mice; type: in vivo; settings: Ang II-infused mice, 3 mg·kg^-1·day^-1 i.p. day 8 to 14, vs Ang II group
GATA6 mRNA = assay: qRT-PCR of aortic tissue, Ang II mice; type: in vivo; settings: Ang II-infused mice, 3 mg·kg^-1·day^-1 i.p. day 8 to 14, vs Ang II group
arginase 1 mRNA = assay: qRT-PCR of aortic tissue, Ang II mice; type: in vivo; settings: Ang II-infused mice, 3 mg·kg^-1·day^-1 i.p. day 8 to 14, vs Ang II group
arginase 2 mRNA = assay: qRT-PCR of aortic tissue, Ang II mice; type: in vivo; settings: Ang II-infused mice, 3 mg·kg^-1·day^-1 i.p. day 8 to 14, vs Ang II group
GTPCH mRNA = assay: qRT-PCR of aortic tissue, Ang II mice; type: in vivo; settings: Ang II-infused mice, 3 mg·kg^-1·day^-1 i.p. day 8 to 14, vs Ang II group
Nox1 mRNA = assay: qRT-PCR of aortic tissue, Ang II mice; type: in vivo; settings: Ang II-infused mice, 3 mg·kg^-1·day^-1 i.p. day 8 to 14, vs Ang II group
Nox2 mRNA = assay: qRT-PCR of aortic tissue, Ang II mice; type: in vivo; settings: Ang II-infused mice, 3 mg·kg^-1·day^-1 i.p. day 8 to 14, vs Ang II group
p47phox mRNA = assay: qRT-PCR of aortic tissue, Ang II mice; type: in vivo; settings: Ang II-infused mice, 3 mg·kg^-1·day^-1 i.p. day 8 to 14, vs Ang II group
Cox-2 mRNA = assay: qRT-PCR of aortic tissue, Ang II mice; type: in vivo; settings: Ang II-infused mice, 3 mg·kg^-1·day^-1 i.p. day 8 to 14, vs Ang II group
SOD3 mRNA = assay: qRT-PCR of aortic tissue, Ang II mice; type: in vivo; settings: Ang II-infused mice, 3 mg·kg^-1·day^-1 i.p. day 8 to 14, vs Ang II group
iNOS mRNA = assay: qRT-PCR of aortic tissue, Ang II mice; type: in vivo; settings: Ang II-infused mice, 3 mg·kg^-1·day^-1 i.p. day 8 to 14, vs Ang II group
MCP-1 mRNA = assay: qRT-PCR of aortic tissue, Ang II mice; type: in vivo; settings: Ang II-infused mice, 3 mg·kg^-1·day^-1 i.p. day 8 to 14, vs Ang II group
VCAM-1 mRNA = assay: qRT-PCR of aortic tissue, Ang II mice; type: in vivo; settings: Ang II-infused mice, 3 mg·kg^-1·day^-1 i.p. day 8 to 14, vs Ang II group
CD68+ macrophages = assay: CD68 immunohistochemistry of aorta (macrophage infiltration), Ang II mice; type: in vivo; settings: Ang II-infused mice, 3 mg·kg^-1·day^-1 i.p. day 8 to 14, immunohistochemistry
Method: For immunohistochemistry, staining was performed in aortic tissues using a primary CD68 antibody. Before incubation with primary antibodies, aorta sections received antigen retrieval using a citrate buffer. Negative controls were performed without a primary antibody.

AT1 = settings: through AT1 ref 25; cited from earlier work
[3] = test system: spontaneously hypertensive rats (SHR); design: method as in PMID 22389387; settings: long-term treatment, SHR ref 22; cited from earlier work
[4] = test system: high-fat diet-induced hypertension; design: method as in PMID 28720877; settings: by downregulating Ang II and AT1 ref 24; cited from earlier work
[5] = test system: Ang II-induced hypertensive mice; settings: Ang II-infused mice ref 28; cited from earlier work

For `Nc1cc(F)ccc1NC(=O)/C=C/c1cnn(C/C=C/c2ccccc2)c1` [RGFP966], the systolic blood pressure [1] was “significantly reduced”, the “ANP mRNA level in heart” value (ANP mRNA) was “significantly reduced” and the “BNP mRNA level in heart” value (BNP mRNA) was “significantly reduced”. For the same molecule, the “skeletal a-actin mRNA level in heart” value (skeletal α-actin mRNA) was “significantly reduced”, the aortic wall thickness [2] was “significantly decreased” and the “cyclin D1 mRNA level in aorta” value (cyclin D1 mRNA) was “not significantly decreased”. The “cyclin E1 mRNA level in aorta” value (cyclin E1 mRNA) was “not significantly decreased”, the “E2F3 mRNA level in aorta” value (E2F3 mRNA) was “significantly inhibited” and the “GATA6 mRNA level in aorta” value (GATA6 mRNA) was “significantly suppressed”. For the same molecule, the “arginase 1 mRNA level in aorta” value (arginase 1 mRNA) was “not reduced”, the “arginase 2 mRNA level in aorta” value (arginase 2 mRNA) was “not reduced” and the “GTPCH mRNA level in aorta” value (GTPCH mRNA) was “significantly reduced”. The “Nox1 mRNA level in aorta” value (Nox1 mRNA) was “unchanged”, the “Nox2 mRNA level in aorta” value (Nox2 mRNA) was “unchanged” and the “p47phox mRNA level in aorta” value (p47phox mRNA) was “unchanged”. For the same molecule, the “Cox-2 mRNA level in aorta” value (Cox-2 mRNA) was “not significantly decreased”, the “SOD3 mRNA expression in aorta” value (SOD3 mRNA) was “did not restore” and the “iNOS mRNA level in aorta” value (iNOS mRNA) was “not”. For the same molecule, the “MCP-1 mRNA level in aorta” value (MCP-1 mRNA) was “not”, the “VCAM-1 expression in aorta” value (VCAM-1 mRNA) was “not” and the “number of CD68+ macrophages in aorta tissue” value (CD68+ macrophages) was “reduced”.
In the case of `CC(/C=C/C(=O)NO)=C\[C@@H](C)C(=O)c1ccc(N(C)C)cc1` [TSA, trichostatin A], the hypertension and vasoconstriction (AT1) is listed as “inhibits”.
In the case of `CCCC(CCC)C(=O)O` [VPA, valproic acid], the “cardiac hypertrophy, inflammation, and hypertensive responses” value [3] is given as “reduces” and the high-fat diet-induced hypertension [4] is given as “prevents”.
For `CN1CCc2c(c3ccccc3n2Cc2ccc(C(=O)NO)cc2)C1` [tubastatin A], the hypertension [5] is given as “did not reduce”.

From paper PMC6398866 (PLoS ONE, 2019)
